Data reported in patent publication US8673894B2 (Hoffmann-La Roche Inc., priority 2010, dated 2014).
Counter-ions that a name gives are not always drawn.

Legend:
[1] = molecular target: T1, endogenous cellular BACE2 (Rattus norvegicus, UniProt Q6IE75); test: Assay for BACE inhibition by measuring cellular TMEM27 cleavage; assay type: cell-based; conditions: INS-TMEM27 (INS1e-derived) cells, shed human TMEM27 in supernatant by ELISA
T1 construct: endogenous cellular BACE2 in the Ins1e rat cell line; endogenous in cells; host or cells: INS-TMEM27 (INS1e-derived rat insulinoma cell line with doxycycline-inducible full-length human TMEM27)
T1 sequence (Q6IE75 63-514): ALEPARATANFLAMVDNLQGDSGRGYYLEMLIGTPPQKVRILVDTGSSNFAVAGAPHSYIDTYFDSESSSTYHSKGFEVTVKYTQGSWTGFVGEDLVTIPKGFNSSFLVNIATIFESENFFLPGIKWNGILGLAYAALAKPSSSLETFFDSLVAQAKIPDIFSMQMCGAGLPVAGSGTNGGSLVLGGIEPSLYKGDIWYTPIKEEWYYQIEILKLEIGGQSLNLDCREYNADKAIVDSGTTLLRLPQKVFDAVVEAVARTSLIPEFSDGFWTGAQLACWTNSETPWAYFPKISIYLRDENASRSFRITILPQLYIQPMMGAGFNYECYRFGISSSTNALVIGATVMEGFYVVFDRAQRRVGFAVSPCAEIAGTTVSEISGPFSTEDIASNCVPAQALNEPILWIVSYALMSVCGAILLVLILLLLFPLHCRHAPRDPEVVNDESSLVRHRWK
Outline: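 INS1e rat cells with doxycycline-inducible human TMEM27 get inhibitor 2 h before doxycycline (500 ng/ml final), then 46 h further at 37° C. Shed TMEM27 in the supernatant is measured by sandwich ELISA, and the EC50 comes from a curve fit of the ELISA signal.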

[2] = system: Aβ40; test: Cellular Aβ-lowering assay; assay type: cell-based; conditions: HEK293 cells stably expressing human APP695, Aβ40 in supernatant by ELISA after 18-20 hrs; read-out: Cellular assay Abeta40 IC50
Outline: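 HEK293 cells stably expressing human wild-type APP695 were treated with compound for 18-20 h at 37 °C in 0.8% v/v DMSO. Secreted Aβ40 in the supernatant was measured by sandwich ELISA (Aβ40 C-terminus-specific capture, HRP-4G8 detection, TMB read at 450 nm) and quantified against a pure Aβ peptide standard curve.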

Row | IC50 [1] [nM] | IC50 [2] [nM] | Compound
1 | 55.9 | 23 | CC[C@]1(c2cc(NC(=O)c3ncc(Cl)cn3)ccc2F)N=C(N)COCC1(F)F [Example 80, (R)-N-(3-(3-Amino-5-ethyl-6,6-difluoro-2,5,6,7-tetrahydro-1,4-oxazepin-5-yl)-4-fluorophenyl)-5-chloropyrimidine-2-carboxamide]
2 | 421000 | 5680 | CC[C@]1(c2cc(NC(=O)c3cccnn3)ccc2F)N=C(N)COCC1(F)F [Example 81, (R)-N-(3-(3-Amino-5-ethyl-6,6-difluoro-2,5,6,7-tetrahydro-1,4-oxazepin-5-yl)-4-fluorophenyl)pyridazine-3-carboxamide]
3 | 36.2 | 40 | CC[C@]1(c2cc(NC(=O)c3ccc(Cl)cn3)ccc2F)N=C(N)COCC1(F)F [Example 82, (R)-N-(3-(3-Amino-5-ethyl-6,6-difluoro-2,5,6,7-tetrahydro-1,4-oxazepin-5-yl)-4-fluorophenyl)-5-chloropicolinamide]
4 | 19.7 | 15 | CC[C@]1(c2cc(NC(=O)c3ncc(Cl)cc3Cl)ccc2F)N=C(N)COCC1(F)F [Example 83, (R)-N-(3-(3-Amino-5-ethyl-6,6-difluoro-2,5,6,7-tetrahydro-1,4-oxazepin-5-yl)-4-fluorophenyl)-3,5-dichloropicolinamide]
5 | 60.2 | 130 | CC[C@]1(c2cc(NC(=O)c3ncc(F)cc3Cl)ccc2F)N=C(N)COCC1(F)F [Example 84, (R)-N-(3-(3-Amino-5-ethyl-6,6-difluoro-2,5,6,7-tetrahydro-1,4-oxazepin-5-yl)-4-fluorophenyl)-3-chloro-5-fluoropicolinamide]
6 | 29.2 | 280 | CC[C@]1(c2cc(NC(=O)c3nn(C)cc3Cl)ccc2F)N=C(N)COCC1(F)F [Example 85, (R)-N-(3-(3-Amino-5-ethyl-6,6-difluoro-2,5,6,7-tetrahydro-1,4-oxazepin-5-yl)-4-fluorophenyl)-4-chloro-1-methyl-1H-pyrazole-3-carboxamide]
7 | 491 | 370 | CC[C@]1(c2cc(NC(=O)c3n[nH]cc3Cl)ccc2F)N=C(N)COCC1(F)F [Example 86, (R)-N-(3-(3-Amino-5-ethyl-6,6-difluoro-2,5,6,7-tetrahydro-1,4-oxazepin-5-yl)-4-fluorophenyl)-4-chloro-1H-pyrazole-3-carboxamide]
8 | 134 | 1120 | CC[C@]1(c2cc(NC(=O)c3ncoc3C)ccc2F)N=C(N)COCC1(F)F [Example 87, (R)-N-(3-(3-amino-5-ethyl-6,6-difluoro-2,5,6,7-tetrahydro-1,4-oxazepin-5-yl)-4-fluorophenyl)-5-methyloxazole-4-carboxamide]
9 | 354 | 5 | C[C@]1(c2cc(NC(=O)c3ncc(C(F)(F)F)cc3F)ccc2F)N=C(N)COCC1(F)F [Example 88, (R)-N-(3-(3-Amino-6,6-difluoro-5-methyl-2,5,6,7-tetrahydro-1,4-oxazepin-5-yl)-4-fluorophenyl)-3-fluoro-5-(trifluoromethyl)picolinamide formate]
10 | 85.3 | 5 | COc1ccc(C(=O)Nc2ccc(F)c([C@@]3(C)N=C(N)COCC3(F)F)c2)nc1 [Example 90, (R)-N-(3-(3-Amino-6,6-difluoro-5-methyl-2,5,6,7-tetrahydro-1,4-oxazepin-5-yl)-4-fluorophenyl)-5-methoxypicolinamide formate]
11 | 453 | 1230 | CCn1cc(Cl)c(C(=O)Nc2ccc(F)c([C@@]3(CC)N=C(N)COCC3(F)F)c2)n1 [Example 91, (R)-N-(3-(3-Amino-5-ethyl-6,6-difluoro-2,5,6,7-tetrahydro-1,4-oxazepin-5-yl)-4-fluorophenyl)-4-chloro-1-ethyl-1H-pyrazole-3-carboxamide]
12 | 731 | 2800 | CC[C@]1(c2cc(NC(=O)c3n[nH]cc3C)ccc2F)N=C(N)COCC1(F)F [Example 92, (R)-N-(3-(3-Amino-5-ethyl-6,6-difluoro-2,5,6,7-tetrahydro-1,4-oxazepin-5-yl)-4-fluorophenyl)-4-methyl-1H-pyrazole-3-carboxamide]
13 | 155000 | 510 | CCc1n[nH]c(C(=O)Nc2ccc(F)c([C@@]3(CC)N=C(N)COCC3(F)F)c2)c1C [Example 93, (R)-N-(3-(3-Amino-5-ethyl-6,6-difluoro-2,5,6,7-tetrahydro-1,4-oxazepin-5-yl)-4-fluorophenyl)-3-ethyl-4-methyl-1H-pyrazole-5-carboxamide]
14 | 24.3 | 10 | Cc1ccc(C(=O)Nc2ccc(F)c([C@@]3(C)N=C(N)COCC3(F)F)c2)nc1 [Example 94, (R)-N-(3-(3-Amino-6,6-difluoro-5-methyl-2,5,6,7-tetrahydro-1,4-oxazepin-5-yl)-4-fluorophenyl)-5-methylpicolinamide formate]
15 | 66.3 | 22 | CCn1cc(Cl)c(C(=O)Nc2ccc(F)c([C@@]3(C)N=C(N)COCC3(F)F)c2)n1 [Example 95, (R)-N-(3-(3-Amino-6,6-difluoro-5-methyl-2,5,6,7-tetrahydro-1,4-oxazepin-5-yl)-4-fluorophenyl)-4-chloro-1-ethyl-1H-pyrazole-3-carboxamide]
16 | 295 | 57 | C[C@]1(c2cc(NC(=O)c3n[nH]cc3Cl)ccc2F)N=C(N)COCC1(F)F [Example 96, (R)-N-(3-(3-amino-6,6-difluoro-5-methyl-2,5,6,7-tetrahydro-1,4-oxazepin-5-yl)-4-fluorophenyl)-4-chloro-1H-pyrazole-3-carboxamide]
17 | 444 | 220 | Cc1c[nH]nc1C(=O)Nc1ccc(F)c([C@@]2(C)N=C(N)COCC2(F)F)c1 [Example 97, (R)-N-(3-(3-Amino-6,6-difluoro-5-methyl-2,5,6,7-tetrahydro-1,4-oxazepin-5-yl)-4-fluorophenyl)-4-methyl-1H-pyrazole-3-carboxamide]
18 | 131 | 39 | Cc1ocnc1C(=O)Nc1ccc(F)c([C@@]2(C)N=C(N)COCC2(F)F)c1 [Example 98, (R)-N-(3-(3-Amino-6,6-difluoro-5-methyl-2,5,6,7-tetrahydro-1,4-oxazepin-5-yl)-4-fluorophenyl)-5-methyloxazole-4-carboxamide]
19 | 118 | 130 | CCc1ocnc1C(=O)Nc1ccc(F)c([C@@]2(C)N=C(N)COCC2(F)F)c1 [Example 99, (R)-N-(3-(3-Amino-6,6-difluoro-5-methyl-2,5,6,7-tetrahydro-1,4-oxazepin-5-yl)-4-fluorophenyl)-5-ethyloxazole-4-carboxamide]
20 | 516 | 2800 | CC[C@]1(c2cc(NC(=O)c3nc[nH]c3C)ccc2F)N=C(N)COCC1(F)F [Example 100, (R)-N-(3-(3-Amino-5-ethyl-6,6-difluoro-2,5,6,7-tetrahydro-1,4-oxazepin-5-yl)-4-fluorophenyl)-5-methyl-1H-imidazole-4-carboxamide]
21 | 1110 | 12 | C[C@]1(c2cc(NC(=O)c3cnc(C(F)(F)F)cn3)ccc2F)N=C(N)COCC1(F)F [Example 101, (R)-N-(3-(3-Amino-6,6-difluoro-5-methyl-2,5,6,7-tetrahydro-1,4-oxazepin-5-yl)-4-fluorophenyl)-5-(trifluoromethyl)pyrazine-2-carboxamide formate]
